Laboratory results taken from the METLIN SMRT retention time set (Domingo-Almenara et al. 2019).

Assay: gradient 5% acetonitrile 3 min, to 50% in 2 min, to 85% in 15 min, held 3 min, 100 µL/min
Conditions: column: Zorbax Extend-C18 2.1 x 50 mm; eluents: water / acetonitrile, 0.1% formic acid
Summary of the method: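 Retention times of pure standards were taken from adduct peaks that were selected by computer and manually inspected. Over 3 months, mixtures of ~100 molecules were run by HPLC–quadrupole time-of-flight mass spectrometry in positive and negative ionization mode. The Zorbax Extend-C18 column (2.1 × 50 mm, 1.8 μm) ran at 100 μL/min in water and acetonitrile, each containing 0.1% formic acid, with 40 μL dead volume and 900 μL dwell volume.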

| SMILES | RP-LC retention time |
| --- | --- |
| O=C(c1ccc(F)cc1)N1CCN(S(=O)(=O)c2cc3c4c(c2)CCC(=O)N4CCC3)CC1 | 808 s |
| Cc1ccc(-c2ccc(N3CCN(c4ccccn4)CC3)nn2)cc1S(=O)(=O)N1CCCC1 | 656 s |
| CCOc1ccc(-c2cc3c(=O)n(Cc4nc(-c5cccc(F)c5)no4)ccn3n2)cc1 | 1140 s |
| CCn1c(C(=O)NCCN2CCCCCC2)c(N2CCCC2=O)c2cc(F)ccc21 | 664 s |
| COc1ccc(NC(=O)COc2ccc(-c3nnc4n3CCCC4)cc2)cc1OC | 626 s |
| CCn1c(CCNC(=O)c2ccc(F)cc2F)nc2cccnc21 | 641 s |
| Cc1ccn2cc(C(=O)N3CCN(C4CCCCC4)CC3)nc2c1 | 566 s |
| O=C(COc1ccc(Cl)cc1)Nc1nc(-c2cccc3ccccc23)cs1 | 1220 s |
| COc1ccc(-c2cn3c(CC(=O)Nc4nc5ccc(C)cc5s4)csc3n2)cc1OC | 783 s |
| Cc1ccc(Sc2nccnc2N2CCCC(C(=O)NCC3CCCO3)C2)cc1 (stereo not drawn) | 917 s |
| O=C(N1CCC(Cc2noc(-c3ccc(F)cc3)n2)C1)C1(c2ccccc2)CC1 (stereo not drawn) | 1010 s |
| COc1ccc(C(C)NC(=O)C2=C3CCCN3c3ccc(F)cc3S2(=O)=O)cc1 (stereo not drawn) | 899 s |
| Cc1ccc(-c2nc(NC(=O)C(C)C)sc2C)cc1 | 1010 s |
| CCOc1ccccc1-c1csc(NC(=O)Cc2csc(COc3cc(C)ccc3C)n2)n1 | 1360 s |
| Cc1ccc(-n2ccc(=O)c(-c3nc(-c4ccccc4Br)no3)n2)cc1C | 1020 s |
| COC(=O)c1cccc(NC(=O)N2CCC(c3nc(C(=O)N(C)C)c(C)o3)CC2)c1 | 972 s |
| O=C(Cn1cnc2ccccc2c1=O)N1CCC(Cn2cccn2)CC1 | 616 s |
| O=C(NCCc1ccccc1)N1CCCC(Cn2c(C3CC3)nc3cccnc32)C1 (stereo not drawn) | 682 s |
| Cc1nc(-c2csc(S(=O)(=O)N3CCCC(C(=O)Nc4ccc(C)c(F)c4)C3)c2)no1 (stereo not drawn) | 1030 s |
| O=C(NC1CC1)c1cc(-c2cccs2)on1 | 788 s |
| Cn1cc(C(=O)NCCCc2ccccc2)c(S(=O)(=O)N2CCSCC2)n1 | 944 s |
| Cc1c(C(=O)NC(C)C)cnn1-c1ccc(-c2nc(C(C)C)no2)cn1 | 931 s |

| SMILES | RP-LC retention time |
| --- | --- |
| Cc1ccc(NC(=O)N2CCCC2c2nc(-c3cccc(C)c3)no2)cc1 (stereo not drawn) | 1060 s |
| Cc1cc(C)n(CCC(=O)N2CCC(n3c(C)cnc3C)C2)n1 (stereo not drawn) | 563 s |
| COc1ccc(-c2cc3n(n2)CCCN(C(=O)c2cccnc2SC)C3)cc1 | 788 s |
| Cc1ccc(C(=O)C2=C(O)C(=O)N(c3ncccn3)C2c2cccc(Cl)c2)o1 (stereo not drawn) | 732 s |
| CC(C)N1C(=O)C(C)(C(=O)NCc2ccc(Br)cc2)Oc2cccnc21 (stereo not drawn) | 1010 s |
| O=C(Nc1cccn2cnnc12)c1ccccn1 | 652 s |
| Cc1ccc(-c2nc3nc(C)cc(N(C)CCO)n3n2)cc1 | 638 s |
| COc1ccc(-c2nc(NC(C)C)c3ccccc3n2)cc1 | 743 s |
| CCN1CCN(CCCNS(=O)(=O)c2cccc(-c3nc(-c4ccc(C)cc4)no3)c2)CC1 | 690 s |
| CCS(=O)(=O)c1nc2ccc(NS(=O)(=O)c3ccc(C(C)C)cc3)cc2s1 | 975 s |
| COc1ccc(Cl)cc1NC(=O)N1CCN(c2cc(C)nc(N3CCOCC3)n2)CC1 | 659 s |
| CC(C)CC(=O)N(C)CCc1noc(-c2ccc(C(=O)N3CCOCC3)cc2)n1 | 695 s |
| Cc1ccc(-c2nc3nc(C)cc(N4CCCCC4C)n3n2)cc1 (stereo not drawn) | 1050 s |
| O=S1(=O)C[C@H](N2CCN(c3ccccn3)CC2)[C@@H](S(=O)(=O)c2cccs2)C1 | 586 s |
| O=C(NC1CCN(c2cc(-c3ccccc3)[nH]n2)C1)c1ccoc1 (stereo not drawn) | 650 s |
| CCN(C(=O)Cn1nc2cc(C)nc(Nc3ccc(C)c(C)c3)n2c1=O)c1ccccc1 | 1230 s |
| CCOC(=O)c1ccc(Nc2c(-c3ccccc3)nc3cnccn23)cc1 | 849 s |
| COc1ccc(-c2nc(C3CC(=O)N(c4ccc(Cl)cc4)C3)no2)c(C)c1 (stereo not drawn) | 1140 s |
| COc1cc(NC(=O)Cn2cccc2-c2nnc(C3CC3)o2)cc(OC)c1 | 802 s |
| O=c1n(Cc2ccc(Cl)cc2)nc2ccc(S(=O)(=O)N3CCCCCC3)cn12 | 1020 s |
| COc1ccc(-c2cc3c(=O)n(CC(=O)N4CCCC4)ncn3n2)cc1 | 746 s |
| O=C(CSc1ccc(-n2cnc(-c3ccccc3)c2)nn1)Nc1ccc(F)cc1F | 816 s |

| SMILES | RP-LC retention time |
| --- | --- |
| Cc1nc(NC(=O)Cc2c(C)[nH]c(=O)[nH]c2=O)sc1C(=O)Nc1ccccc1 | 617 s |
| COc1ccccc1NC(=O)C1CCN(c2cnc(N3CCCCCC3)nc2)CC1 | 826 s |
| Cc1cccc(S(=O)(=O)N(C)CC2(C)CCOCC2)c1 | 918 s |
| CS(=O)(=O)N1CCC(C(=O)NCC2CCN(C(=O)Nc3ccc(F)cc3)CC2)CC1 | 622 s |
| Cc1ccc(C)c(NC(=O)CCc2cccc3[nH]ccc23)c1 | 879 s |
| CN1C(=O)c2cc(C(=O)NCc3cccc(Cl)c3)nn2CC1(C)C(=O)NCc1ccccc1 (stereo not drawn) | 793 s |
| COCCN1C(=O)CCc2cc(NS(=O)(=O)c3ccc(C)c(C)c3)ccc21 | 816 s |
| CC1CCN(S(=O)(=O)c2ccc(-c3nnc(C(=O)NCCCc4ccccc4)o3)cc2)CC1 | 1150 s |
| Cc1nn(CCC(=O)Nc2cccc(Cl)c2)c(=O)c2nn(-c3ccccc3)c(C)c12 | 867 s |
| O=C(c1ccc(-n2cnnn2)cc1)N1CCN(c2ccccn2)CC1 | 567 s |
| Cc1ccc(NC(=O)N2CCCC(C)(C(=O)NCc3ccccc3)C2)c(C)c1 (stereo not drawn) | 924 s |
| CCCCCc1nnc(NC(=O)C2CC(=O)N(CCc3c[nH]c4ccc(C)cc34)C2)s1 (stereo not drawn) | 873 s |
| Cc1c(Cl)cccc1NC(=O)NC1CCN(c2ccc(F)cc2)C1=O (stereo not drawn) | 864 s |
| O=C(NCc1ccco1)C1CCN(c2ccc(Sc3ccccc3)nn2)CC1 | 1060 s |
| COC(=O)Cn1c(-c2ccccc2)cnc1SCC(=O)Nc1nccs1 | 671 s |
| CCC(C)NC(=O)N1CCc2c(c(-c3nc(C)no3)nn2C)C1 (stereo not drawn) | 673 s |
| CSc1cccc(NC(=O)CN2C(=O)CCn3nc(-c4cn(C)c5ccccc45)cc32)c1 | 902 s |
| CCc1noc(-c2ccnc(-n3ncc(C(=O)NCC(C)C)c3C)c2)n1 | 931 s |
| O=C(CN1CC(c2nc(-c3cccnc3)no2)C1)Nc1cc(C(F)(F)F)ccc1Cl | 634 s |
| O=C(NCCc1csc(-c2cccs2)n1)C1CCN(C(=O)COc2ccccc2)CC1 | 783 s |
| O=C(C1=CN(c2ccccc2)c2cc(Cl)ccc2S1(=O)=O)N1CCCC1 | 827 s |
| CCOC(=O)c1nc(N(C)c2cccc(C)c2)c2ccccc2n1 | 982 s |

| SMILES | RP-LC retention time |
| --- | --- |
| CC(=O)N1C[C@@H]2CCCN3CCC[C@@H]([C@H]23)[C@H]1CCCC(=O)NCC1CC1 | 562 s |
| Cc1cc(C)n(CCC(=O)N2CC(Oc3cccc(-c4nc(-c5ccccc5)no4)c3)C2)n1 | 1000 s |
| Cc1cccc(-c2nnc(-c3nc(NCCCN4CCCC4=O)c4ccccc4n3)o2)c1 | 814 s |
| CCn1cc(-c2nc(-c3ccc(Cl)cc3)no2)c(=O)c2cc(F)c(N3CCOCC3)cc21 | 1020 s |
| Cc1cccc(-c2noc(-c3cc(N4CCN(C)CC4)nc4ccccc34)n2)c1 | 837 s |
| O=C(NCCCN1CCCCC1)C1CCN(c2cnn(Cc3ccccc3)c(=O)c2)CC1 | 606 s |
| O=C(Nc1ccc(-c2nc(-c3ccccc3)co2)cc1)c1ccc(Br)o1 | 1190 s |
| O=C(O)C1CCCCC1C(=O)NCCc1csc(-c2cccnc2)n1 (stereo not drawn) | 593 s |
| c1ccc(CN2CCCC(c3n[nH]c(C4CC4)n3)C2)nc1 (stereo not drawn) | 465 s |
| COc1ccc(OC)c(NC(=O)C2CCN(S(=O)(=O)c3ccc4c(c3)sc(=O)n4C)CC2)c1 | 840 s |
| Cc1nc(N2CCN(c3ccccn3)CC2)nc2c1C(=O)CC(c1ccc(Cl)cc1)C2 (stereo not drawn) | 823 s |
| O=C(Nc1cccc(OCc2nnc(-c3ccccc3)o2)c1)c1cncc(Br)c1 | 912 s |
| CCCNc1cc(N2CCCC(CCC(=O)N(CC)CC)C2)ncn1 (stereo not drawn) | 658 s |
| Fc1ccc(-n2cc(-c3noc(-c4ccccc4)n3)nn2)cc1 | 1040 s |
| CC1=C(c2ccc(C)cc2)S(=O)(=O)N=C1N1CCCN(C(=O)c2cccc(F)c2)CC1 | 859 s |
| CCn1ccc(NC(=O)c2cccc(C)c2)n1 | 743 s |
| Cc1ccccc1S(=O)(=O)N1CCC2(CC1)NCCN=C2NCc1cccc(F)c1 | 712 s |
| CCOc1ccc(NC(=O)c2cn(-c3cc(N4CCCC(C)C4)ncn3)cn2)cc1 (stereo not drawn) | 1130 s |
| Cc1cc(-n2c(C)nc3ccccc3c2=O)ccc1NC(=O)Cc1ccccc1F | 798 s |
| Cc1ccc(NC(=O)C2CCN(S(=O)(=O)c3cc(C(=O)N4CCCC4)cs3)CC2)c(C)c1 | 831 s |
| O=C(NCCc1ccccc1)NC(c1ccccc1)c1nnc(-c2ccccc2)o1 (stereo not drawn) | 876 s |
| CC1=C(C(=O)N2CCOCC2)C(c2c(F)cccc2Cl)C2=C(CC(C)(C)CC2=O)N1 (stereo not drawn) | 690 s |
